Values after ≈ are worked out from the molar mass of the structure shown. Blank lines part the entries; values can stand above or below the compound they belong to. Active and inactive are the calls of the source. The calls are words filed in the database; no cut-off is given here.
What was measured:
Staphylococcus aureus [1] = experiment: Antimicrobial activity against Staphylococcus aureus ATCC6538 assessed as reduction in bacterial growth incubated for 24 hrs by two-fold broth dilution method; type: functional
Staphylococcus aureus [2] = experiment: Antimicrobial activity against Staphylococcus aureus N315 assessed as reduction in bacterial growth incubated for 24 hrs by two-fold broth dilution method; type: functional
Streptomyces albus = experiment: Antimicrobial activity against Streptomyces albus SHBC D11158 assessed as reduction in bacterial growth incubated for 24 hrs by two-fold broth dilution method; type: functional
Staphylococcus hominis = experiment: Antimicrobial activity against methicillin-resistant Staphylococcus hominis assessed as reduction in bacterial growth incubated for 24 hrs by two-fold broth dilution method; type: functional
Staphylococcus aureus [3] = experiment: Antimicrobial activity against methicillin resistant Staphylococcus aureus clinical isolate MRS1 assessed as reduction in bacterial growth incubated for 24 hrs by two-fold broth dilution method; type: functional
Staphylococcus aureus [4] = experiment: Antimicrobial activity against methicillin resistant Staphylococcus aureus clinical isolate MRS23 assessed as reduction in bacterial growth incubated for 24 hrs by two-fold broth dilution method; type: functional
Staphylococcus aureus [5] = experiment: Antimicrobial activity against methicillin resistant Staphylococcus aureus clinical isolate MRS70 assessed as reduction in bacterial growth incubated for 24 hrs by two-fold broth dilution method; type: functional
Staphylococcus aureus [6] = experiment: Antimicrobial activity against methicillin resistant Staphylococcus aureus clinical isolate MRS207 assessed as reduction in bacterial growth incubated for 24 hrs by two-fold broth dilution method; type: functional
Staphylococcus aureus [7] = experiment: Antimicrobial activity against methicillin resistant Staphylococcus aureus clinical isolate MRS108 assessed as reduction in bacterial growth incubated for 24 hrs by two-fold broth dilution method; type: functional
Staphylococcus aureus [8] = experiment: Antimicrobial activity against methicillin resistant Staphylococcus aureus clinical isolate MRS152 assessed as reduction in bacterial growth incubated for 24 hrs by two-fold broth dilution method; type: functional
Staphylococcus aureus [9] = experiment: Antimicrobial activity against methicillin resistant Staphylococcus aureus clinical isolate MRS200 assessed as reduction in bacterial growth incubated for 24 hrs by two-fold broth dilution method; type: functional
Staphylococcus aureus [10] = experiment: Antimicrobial activity against methicillin resistant Staphylococcus aureus clinical isolate MRS273 assessed as reduction in bacterial growth incubated for 24 hrs by two-fold broth dilution method; type: functional
Staphylococcus aureus [11] = experiment: Antimicrobial activity against methicillin resistant Staphylococcus aureus clinical isolate MRS153 assessed as reduction in bacterial growth incubated for 24 hrs by two-fold broth dilution method; type: functional
Staphylococcus aureus [12] = experiment: Antimicrobial activity against methicillin resistant Staphylococcus aureus clinical isolate MRS84 assessed as reduction in bacterial growth incubated for 24 hrs by two-fold broth dilution method; type: functional
Staphylococcus aureus [13] = experiment: Antimicrobial activity against methicillin resistant Staphylococcus aureus clinical isolate MRS121 assessed as reduction in bacterial growth incubated for 24 hrs by two-fold broth dilution method; type: functional
Staphylococcus aureus [14] = experiment: Antimicrobial activity against methicillin resistant Staphylococcus aureus clinical isolate MRS97 assessed as reduction in bacterial growth incubated for 24 hrs by two-fold broth dilution method; type: functional
[15] = Hemolytic activity in rabbit Red blood cell assessed as hemolysis incubated for 1 hr by two-fold microdilution method; type: toxicity, cell-based, Oryctolagus cuniculus, Erythrocyte; conditions: red blood cells (erythrocytes)
[16] = Selectivity index, ratio of HC50 for rabbit Red blood cell to MIC for Staphylococcus aureus ATCC6538; type: toxicity; conditions: red blood cells (erythrocytes), read-out: Selectivity Index
[17] = Cytotoxicity against African green monkey Vero E6 cells assessed as reduction in cell viability measured after 24 hrs by CCK-8 method; type: toxicity, cell-based, Chlorocebus sabaeus, Vero C1008
[18] = Selectivity index, ratio of IC50 for African green monkey Vero E6 cells to MIC for Staphylococcus aureus ATCC6538; type: toxicity; conditions: read-out: Selectivity Index
HeLa = experiment: Cytotoxicity against human HeLa cells assessed as reduction in cell viability measured after 24 hrs by CCK-8 method; type: functional, cell-based
[19] = Cytotoxicity against human HaCaT cells assessed as reduction in cell viability measured after 24 hrs by CCK-8 method; type: toxicity, cell-based
[20] = Cytotoxicity against HEK293 cells assessed as reduction in cell viability measured after 24 hrs by CCK-8 method; type: toxicity, cell-based; conditions: human
A549 = experiment: Cytotoxicity against human A549 cells assessed as reduction in cell viability measured after 24 hrs by CCK-8 method; type: functional, cell-based; conditions: A549, 24 h
Staphylococcus aureus [21] = experiment: Induction of drug resistance in Staphylococcus aureus ATCC6538 assessed as change in MIC measured after 10 passages; type: functional
Staphylococcus aureus [22] = experiment: Bactericidal activity against Staphylococcus aureus ATCC6538 assessed as reduction in survival rate at 5 to 10 times MIC measured after 30 to 120 mins by colony counting method relative to control; type: functional; conditions: time 30-120 min

Structure (SMILES): COc1ccc(-c2ccc(O)c(N(Cc3cc4ccccc4s3)C(=O)CCC(F)(F)F)c2)cc1
MIC (Staphylococcus aureus [1]): 1 µg/mL (≈ 2.06 µM)
MIC (Staphylococcus aureus [2]): 1 µg/mL (≈ 2.06 µM)
MIC (Streptomyces albus): > 32 µg/mL
MIC (Staphylococcus hominis): > 32 µg/mL
MIC (Staphylococcus aureus [3]): > 16 µg/mL
MIC (Staphylococcus aureus [4]): > 16 µg/mL
MIC (Staphylococcus aureus [5]): > 16 µg/mL
MIC (Staphylococcus aureus [6]): > 16 µg/mL
MIC (Staphylococcus aureus [7]): > 16 µg/mL
MIC (Staphylococcus aureus [8]): > 16 µg/mL
MIC (Staphylococcus aureus [9]): 16 µg/mL (≈ 33 µM)
MIC (Staphylococcus aureus [10]): 16 µg/mL (≈ 33 µM)
MIC (Staphylococcus aureus [11]): 16 µg/mL (≈ 33 µM)
MIC (Staphylococcus aureus [12]): > 16 µg/mL
MIC (Staphylococcus aureus [13]): 16 µg/mL (≈ 33 µM)
MIC (Staphylococcus aureus [14]): 16 µg/mL (≈ 33 µM)

Structure (SMILES): O=C(CCC(F)(F)F)N(Cc1cc2ccccc2s1)c1cccc(-c2ccccc2)c1O
MIC (Staphylococcus aureus [1]): > 16 µg/mL
MIC (Staphylococcus aureus [2]): > 16 µg/mL

Structure (SMILES): O=C(CCC(F)(F)F)N(Cc1cc2ccccc2s1)c1cc(-c2cncnc2)ccc1O
MIC (Staphylococcus aureus [1]): > 16 µg/mL
MIC (Staphylococcus aureus [2]): > 16 µg/mL

Structure (SMILES): COc1ccccc1-c1ccc(O)c(N(Cc2cc3ccccc3s2)C(=O)CCC(F)(F)F)c1
MIC (Staphylococcus aureus [1]): 1 µg/mL (≈ 2.06 µM)
MIC (Staphylococcus aureus [2]): 1 µg/mL (≈ 2.06 µM)
MIC (Streptomyces albus): 16 µg/mL (≈ 33 µM)
MIC (Staphylococcus hominis): > 32 µg/mL
MIC (Staphylococcus aureus [3]): 16 µg/mL (≈ 33 µM)
MIC (Staphylococcus aureus [4]): 16 µg/mL (≈ 33 µM)
MIC (Staphylococcus aureus [5]): 16 µg/mL (≈ 33 µM)
MIC (Staphylococcus aureus [6]): > 16 µg/mL
MIC (Staphylococcus aureus [7]): 6 µg/mL (≈ 12.4 µM)
MIC (Staphylococcus aureus [8]): 6 µg/mL (≈ 12.4 µM)
MIC (Staphylococcus aureus [9]): 16 µg/mL (≈ 33 µM)
MIC (Staphylococcus aureus [10]): 3 µg/mL (≈ 6.18 µM)
MIC (Staphylococcus aureus [11]): 16 µg/mL (≈ 33 µM)
MIC (Staphylococcus aureus [12]): 3 µg/mL (≈ 6.18 µM)
MIC (Staphylococcus aureus [13]): 6 µg/mL (≈ 12.4 µM)
MIC (Staphylococcus aureus [14]): 3 µg/mL (≈ 6.18 µM)

Structure (SMILES): O=C(CCC(F)(F)F)N(Cc1cc2ccccc2s1)c1cc(-c2ccc(C(F)(F)F)cc2)ccc1O
MIC (Staphylococcus aureus [1]): 0.5 µg/mL (≈ 0.955 µM)
MIC (Staphylococcus aureus [2]): 2 µg/mL (≈ 3.82 µM)
MIC (Streptomyces albus): 8 µg/mL (≈ 15.3 µM)
MIC (Staphylococcus hominis): 8 µg/mL (≈ 15.3 µM)
HC50 at 1 h [15]: 5570 µg/mL
selectivity ratio [16]: > 1000
IC50 at 24 h [17]: 5.55 µg/mL (≈ 10.6 µM)
selectivity ratio [18]: 11
IC50 (HeLa): 5 µg/mL (≈ 9.55 µM)
IC50 at 24 h [19]: 3.92 µg/mL (≈ 7.49 µM)
IC50 at 24 h [20]: 2.79 µg/mL (≈ 5.33 µM)
IC50 (A549): 3.61 µg/mL (≈ 6.9 µM)
MIC (Staphylococcus aureus [3]): 16 µg/mL (≈ 30.6 µM)
MIC (Staphylococcus aureus [4]): 16 µg/mL (≈ 30.6 µM)
MIC (Staphylococcus aureus [5]): 6 µg/mL (≈ 11.5 µM)
MIC (Staphylococcus aureus [6]): 16 µg/mL (≈ 30.6 µM)
MIC (Staphylococcus aureus [7]): 16 µg/mL (≈ 30.6 µM)
MIC (Staphylococcus aureus [8]): 6 µg/mL (≈ 11.5 µM)
MIC (Staphylococcus aureus [9]): 16 µg/mL (≈ 30.6 µM)
MIC (Staphylococcus aureus [10]): 6 µg/mL (≈ 11.5 µM)
MIC (Staphylococcus aureus [11]): 6 µg/mL (≈ 11.5 µM)
MIC (Staphylococcus aureus [12]): 6 µg/mL (≈ 11.5 µM)
MIC (Staphylococcus aureus [13]): 6 µg/mL (≈ 11.5 µM)
MIC (Staphylococcus aureus [14]): 3 µg/mL (≈ 5.73 µM)
Activity (Staphylococcus aureus [21]): inactive

Structure (SMILES): CCCCCC(=O)N(Cc1cc2ccccc2s1)c1ccc2ccccc2c1O
MIC (Staphylococcus aureus [1]): > 250 µg/mL
MIC (Staphylococcus aureus [2]): > 250 µg/mL

Structure (SMILES): O=C(CCC(F)(F)F)N(Cc1cc2ccccc2s1)c1cc(-c2ccccc2C(F)(F)F)ccc1O
MIC (Staphylococcus aureus [1]): > 16 µg/mL
MIC (Staphylococcus aureus [2]): > 16 µg/mL

Structure (SMILES): O=C(CCC(F)(F)F)N(Cc1cc2ccccc2s1)c1cc(-c2ccccc2)ccc1O
MIC (Staphylococcus aureus [1]): 1 µg/mL (≈ 2.2 µM)
MIC (Staphylococcus aureus [2]): 2 µg/mL (≈ 4.39 µM)
MIC (Streptomyces albus): 4 µg/mL (≈ 8.78 µM)
MIC (Staphylococcus hominis): 6 µg/mL (≈ 13.2 µM)
Survival (Staphylococcus aureus [22]): <1%
HC50 at 1 h [15]: 1770 µg/mL
selectivity ratio [16]: > 1000
IC50 at 24 h [17]: 22.9 µg/mL (≈ 50.3 µM)
selectivity ratio [18]: 22
IC50 (HeLa): > 25 µg/mL
IC50 at 24 h [19]: > 25 µg/mL
IC50 at 24 h [20]: 7.8 µg/mL (≈ 17.1 µM)
IC50 (A549): 10.7 µg/mL (≈ 23.5 µM)
MIC (Staphylococcus aureus [3]): 3 µg/mL (≈ 6.59 µM)
MIC (Staphylococcus aureus [4]): 3 µg/mL (≈ 6.59 µM)
MIC (Staphylococcus aureus [5]): 3 µg/mL (≈ 6.59 µM)
MIC (Staphylococcus aureus [6]): 2 µg/mL (≈ 4.39 µM)
MIC (Staphylococcus aureus [7]): 2 µg/mL (≈ 4.39 µM)
MIC (Staphylococcus aureus [8]): 2 µg/mL (≈ 4.39 µM)
MIC (Staphylococcus aureus [9]): 3 µg/mL (≈ 6.59 µM)
MIC (Staphylococcus aureus [10]): 3 µg/mL (≈ 6.59 µM)
MIC (Staphylococcus aureus [11]): 3 µg/mL (≈ 6.59 µM)
MIC (Staphylococcus aureus [12]): 2 µg/mL (≈ 4.39 µM)
MIC (Staphylococcus aureus [13]): 3 µg/mL (≈ 6.59 µM)
MIC (Staphylococcus aureus [14]): 2 µg/mL (≈ 4.39 µM)
Activity (Staphylococcus aureus [21]): inactive

Further lines, results first:

MIC (Staphylococcus aureus [1]): 2 µg/mL (≈ 4.66 µM)
MIC (Staphylococcus aureus [2]): 2 µg/mL (≈ 4.66 µM)
Structure (SMILES): O=C(CCC(F)(F)F)N(Cc1cc2ccccc2s1)c1ccc2ccccc2c1O

MIC (Staphylococcus aureus [1]): > 16 µg/mL
MIC (Staphylococcus aureus [2]): > 16 µg/mL
Structure (SMILES): COc1cc(-c2ccccc2)ccc1N(Cc1cc2ccccc2s1)C(=O)CCC(F)(F)F

MIC (Staphylococcus aureus [1]): 62.5 µg/mL (≈ 166 µM)
MIC (Staphylococcus aureus [2]): 62.5 µg/mL (≈ 166 µM)
Structure (SMILES): CCCCC(=O)N(Cc1ccc2c(c1)CCO2)c1ccc2ccccc2c1O

MIC (Staphylococcus aureus [1]): 2 µg/mL (≈ 4.39 µM)
MIC (Staphylococcus aureus [2]): 6 µg/mL (≈ 13.2 µM)
Structure (SMILES): O=C(CCC(F)(F)F)N(Cc1cc2ccccc2s1)c1c(O)cccc1-c1ccccc1

MIC (Staphylococcus aureus [1]): 2 µg/mL (≈ 4.39 µM)
MIC (Staphylococcus aureus [2]): 3 µg/mL (≈ 6.59 µM)
Structure (SMILES): O=C(CCC(F)(F)F)N(Cc1cc2ccccc2s1)c1ccc(-c2ccccc2)cc1O

MIC (Staphylococcus aureus [1]): 62.5 µg/mL (≈ 144 µM)
MIC (Staphylococcus aureus [2]): 125 µg/mL (≈ 288 µM)
Structure (SMILES): CCCCC(=O)N(Cc1cc2ccccc2c2ccccc12)c1ccc2ccccc2c1O

MIC (Staphylococcus aureus [1]): 31.2 µg/mL (≈ 80.2 µM)
MIC (Staphylococcus aureus [2]): 62.5 µg/mL (≈ 160 µM)
Structure (SMILES): CCCCC(=O)N(Cc1ccc2sccc2c1)c1ccc2ccccc2c1O

MIC (Staphylococcus aureus [1]): 31.2 µg/mL (≈ 82.8 µM)
MIC (Staphylococcus aureus [2]): 31.2 µg/mL (≈ 82.8 µM)
Structure (SMILES): CCCCC(=O)N(Cc1ccc2c(c1)OCO2)c1ccc2ccccc2c1O

— ChEMBL document CHEMBL5537201, “Discovery of Unique Bis-Substituted Aromatic Amide Derivatives as Novel Highly Potent Antibiotics for Combating Methicillin-Resistant Staphylococcus aureus (MRSA)” (J Med Chem, 2024)
